We go through one molecule from patent US12264163B2, “Compounds and methods for treating fibrotic pathologies” (Mayo Foundation for Medical Education and Research, priority 2019, dated 2025).

Common to all, as to format: cell-based, human
In one experiment the test system is CTGF, COL1A1, ACTA2, FN1. Put plainly: Profibrotic / matrix remodeling gene expression by qPCR in fibroblasts. The method, then:
Genes which encode Connective tissue growth factor (CTGF), Collagen I (COL1A1), αSMA (ACTA2), and Fibronectin (FN1) are reduced by 24 hour treatment with DHX (10 μM), +/−SCH 39166 (3 μM). N=3 (****p<0.0001, ***p<0.001, *p<0.05 vs. 0.1% DMSO vehicle control)
IPF patient-derived fibroblasts cultured in media containing 0.1% FBS were stimulated for 24 hours with 2 ng/mL TGFβ and 10 μM DHX prior to RNA isolation. Genes which encode for ECM crosslinking: transglutaminase 2 (TGM2), lysyl oxidase and lysyl oxidase-like enzymes (LOX and LOXL1-4), ECM degradation: uPA (PLAU), tPa (PLAT), cathepsin K (CTSK), and matrix metalloprotease-14 (MMP14) and ECM protease inhibitors: metalloprotease inhibitor 3 (TIMP3), and plasminogen activator inhibitor 1 (SERPINE1) were measured. N=3. (****p<0.0001, ***p<0.001, **p<0.01, *p<0.05 vs. 0.1% DMSO vehicle control non-TGFβ treated), (++++p<0.0001, ++p<0.01, +p<0.05 vs. 0.10% DMSO vehicle control TGFβ treated).
For all other in vitro experiments, cells were treated as indicated prior to RNA isolation using RNeasy Plus Mini Kit (Qiagen) according to manufacturer's instructions. Isolated RNA (250 ng) was then used to synthesize cDNA using SuperScript VILO (Invitrogen). Quantitative PCR was performed using FastStart Essential DNA Green Master (Roche) and analyzed using a LightCycler 96 (Roche). Data are expressed as a fold change by ΔΔCt relative to GAPDH. For in vivo experiments, tissue was immediately frozen, and stored at −80° C. RNA isolation, cDNA synthesis, and qPCR analysis were performed as above.

A further experiment concerns YAP/TAZ. In words: YAP/TAZ localization in lung alveolar epithelial and endothelial cells. The following applies: pulmonary (alveolar) epithelial and endothelial cells. The method, then: N=4 (****p<0.0001 vs. 0.1% DMSO vehicle control)
N=3 (****p<0.0001 vs. 0.1% DMSO vehicle control).
Human lung fibroblasts and alveolar epithelial cells are treated with MS-9 and influence on YAP/TAZ localization is determined.
Immunofluorescence Microscopy: Cells were plated into 96 well plates (Corning 3603) in their specific growth media and allowed to attach (8 hours). Media was then exchanged for the indicated conditions for each experiment. Cells were fixed in 3.7% formalin (Sigma-Aldrich), permeabilized in 0.25% Triton X-100 (Sigma-Aldrich) and then blocked with 1% BSA for 1 h. Cells or tissue sections were incubated overnight with mouse monoclonal antibody against αSMA (Sigma-Aldrich F3777), and/or a rabbit monoclonal antibody against YAP/TAZ (Cell Signaling D24E4) diluted 1:200 in PBS with 1% BSA. […] For scoring αSMA positive cells (FIG. 12), an observer blinded to the treatment conditions counted αSMA-positive cells using a visual threshold for bright fibrous staining; a minimum of 200 cells was counted for each condition. YAP/TAZ localization was quantified (FIGS. 6-10, 24-26, and 29-30) using Gen5 (Biotek) software. […] Quantification of double positive (YAP/TAZ and αSMA) cells from lung tissue sections (FIG. 17-21) was performed similarly; however separate thresholds were established for both YAP/TAZ and αSMA. A minimum of 4000 cells was quantified for each mouse.

In another experiment the test system is cAMP. Put plainly: cAMP assay (cAMP-Glo) in fibroblasts. The following applies: IPF patient-derived fibroblasts, 20 minutes, 10 μM. The method, then: FIG. 9 contains a bar graph showing cAMP measured in IPF patient-derived fibroblasts treated for 20 minutes with DHX (10 μM)+/−SCH 39166 (3 μM). N=3 (**p<0.01 vs. 0.1% DMSO vehicle control).
N=3, IMR-90 lung fibroblasts.
cAMPAssay: IPF patient derived fibroblasts were plated in EMEM containing 10% FBS overnight. […] 20 minutes prior to cell lysis media was removed and cells were treated with “induction buffer” containing nonselective phosphodiesterase inhibitors and the indicated concentration of compound(s). Luminescence was measured on a Flexstation 3 (Molecular Devices) plate reader.
In general terms: cAMP levels reflect the balance of adenylyl cyclase and phosphodiesterase activity.

The test system of a further experiment is YAP. In words: Western blotting of YAP serine 127 phosphorylation. The following applies: IMR-90 cells, 10 μM, 2 hours. The method, then:
IMR-90 cells cultured for 24 hours in media containing 0.1% FBS, treated 2 hours prior to fixation. N=3 (***p<0.001 vs. 0.1% DMSO vehicle control).
(§1) Western Blotting: Cells were plated in EMEM containing 10% FBS overnight. Media was exchanged with EMEM containing 0.1% FBS for 24 hours. Prior to protein isolation cells were treated with the indicated concentration of compounds for the indicated time. Total protein was isolated using RIPA buffer (pH 8.0) containing Pierce Phosphatase Inhibitor (Thermo) and Halt Protease Inhibitor Cocktail (Thermo). Lysate total protein concentration was determined using Pierce BCA Protein Assay Kit (Thermo) and samples were run on a 10% polyacrylamide gel. Blots were incubated overnight with primary antibodies: pYAP (Ser 127, Cell Signaling D9W21), YAP/TAZ (Cell Signaling D24E4), GAPDH (Cell Signaling 14C10), HSC70 (Santa Cruz sc-7298), αSMA (Abcam ab5694), and fibronectin (Santa Cruz sc-9068) diluted 1:1000 in Li-Cor Odyssey Blocking Buffer. Blots were washed with TBS-Tween before 60 minute incubation with IR-dye-conjugated secondary antibodies (Li-Cor) diluted 1:10,000. Plates were imaged via a Li-Cor OdysseyXL system with quantification performed via densitometry.
Background: In western blotting, separated proteins are transferred to a membrane and probed.

Another experiment relates to hepatic stellate cells. In words: TGFβ-mediated hepatic stellate cell activation, western blot of αSMA and fibronectin. As to conditions: HSCs, TGFβ 48 hours, DHX 10 μM. The procedure: HSCs were stimulated with TGFβ for 48 hours+/−DHX (10 μM) prior to total protein isolation and western blot analysis of αSMA and Fibronectin. N=3 (***p<0.001, **p<0.01, *p<0.05 vs. Control+TGFβ).
as §1, with “densitometry. […]” for “densitometry.”

Consider `Oc1cc2c(cc1O)[C@H]1c3ccccc3CN[C@@H]1CC2` (racemic) [Dihydrexidine], for which, in the experiment on CTGF, COL1A1, ACTA2, FN1 (IPF patient derived fibroblasts, 2 ng/mL TGFβ + 10 μM DHX, 24 hours), the “expression of matrix crosslinking, protease inhibitor and matrix degradation genes” value is given as “reversed the effects of TGFβ”. The “expression of profibrotic genes CTGF, COL1A1, ACTA2, FN1” value in the experiment with CTGF, COL1A1, ACTA2, FN1 (IPF patient-derived lung fibroblasts, 10 μM, 24 hour) was “reduced”. Further, in the experiment on CTGF, COL1A1, ACTA2, FN1 (NIH-3T3 cells expressing doxycycline-inducible TAZ4SA), the “profibrotic gene expression and extracellular matrix accumulation with constitutively active TAZ” value is “no effect on profibrotic gene expression or extracellular matrix accumulation”. Moreover, the “profibrotic gene expression in human dermal fibroblasts” value in the experiment on CTGF, COL1A1, ACTA2, FN1 (human dermal fibroblasts, 24 hours +/− 2 ng/mL TGFβ) is recorded as “blocks profibrotic gene expression”. Also, the “YAP/TAZ localization in epithelial / endothelial cells” value in the experiment on YAP/TAZ is reported as “no effect on YAP/TAZ localization”. In the experiment on cAMP, the cAMP entry is reported as “elevated cAMP”. Further, in the experiment on YAP, the “YAP serine 127 phosphorylation” value is “promoted YAP serine 127 phosphorylation”. The “TGFβ-mediated HSC expression of SMA and FN protein (western blotting)” value with hepatic stellate cells is “significant reversal of both”.
